Laboratory results taken from patent publication US20240117334A1, “FACTOR B PROTEASES” (Vertex Pharmaceuticals Incorporated, priority 2021, published 2024).

Legend:
Assay type in all cases: biochemical
[1] = test system: human Factor B depleted sera with Factor B, rabbit red blood cells; experiment: Enhanced AP RBC hemolysis assay (Factor B depleted sera with Factor B spiked back); parameters: unit of the concentration uncertain
Method: (§1) Percent lysis was calculated using the following formula: [(OD415 of sample−OD415 EDTA negative control)/(OD415 saline positive control-OD415 EDTA)*100 ] (Table 17A and Table 17B). IC50s were calculated by nonlinear regression (Prism 9, log(inhibitor,bv) vs. response-4 parameter variable slope model) (Table 18A and Table 18B).

[2] = test system: 20% Normal Human Serum, rabbit red blood cells; experiment: Standard Alternative Pathway (AP) RBC hemolysis assay; parameters: unit of the concentration uncertain
Method: as §1

Human Factor B [3] = target: T1, Human Factor B (Homo sapiens, UniProt P00751); experiment: Factor B cleavage by KLK5, Factor B ELISA; settings: 4 μM Factor B, 1 hour at 37° C., two stocks
T1 sequence (P00751 26-764): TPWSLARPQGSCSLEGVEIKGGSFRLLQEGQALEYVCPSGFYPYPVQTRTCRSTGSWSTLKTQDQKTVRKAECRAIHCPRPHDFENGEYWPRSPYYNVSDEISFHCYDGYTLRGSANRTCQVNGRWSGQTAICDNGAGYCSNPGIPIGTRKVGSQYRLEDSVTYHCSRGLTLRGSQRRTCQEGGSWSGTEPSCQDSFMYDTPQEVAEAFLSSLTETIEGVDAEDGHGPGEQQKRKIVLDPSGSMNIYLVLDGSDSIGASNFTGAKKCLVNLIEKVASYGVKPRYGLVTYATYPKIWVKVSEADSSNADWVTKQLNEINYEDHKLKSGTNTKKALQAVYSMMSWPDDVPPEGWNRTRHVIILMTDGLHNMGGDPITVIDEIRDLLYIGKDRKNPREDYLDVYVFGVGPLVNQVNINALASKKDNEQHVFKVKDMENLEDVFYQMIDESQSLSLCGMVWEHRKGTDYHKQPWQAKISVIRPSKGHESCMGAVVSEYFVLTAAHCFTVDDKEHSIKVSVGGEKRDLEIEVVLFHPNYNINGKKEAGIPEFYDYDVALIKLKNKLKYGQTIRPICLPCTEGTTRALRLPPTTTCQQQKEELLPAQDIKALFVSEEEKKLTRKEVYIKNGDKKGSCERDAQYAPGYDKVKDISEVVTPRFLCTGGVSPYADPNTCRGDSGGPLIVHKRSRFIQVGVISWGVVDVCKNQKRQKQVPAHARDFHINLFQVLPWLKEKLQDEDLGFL
Method: FIG. 7B depicts a graph showing Factor B cleavage with KLK5 and a chymase-based engineered protease C22S/F173Y/D175N/A226R. Briefly, A digestion reaction is prepared with 4.0 uM of Human Factor B (Complement Technologies) in 20 μL buffer (50 mM Tris pH 7.4/50 mM NaCl/0.01% Tween 20). Different concentrations of KLK5 (400, 200, 100, 50, 25, 12.5, 6.25, 3.125, 1.56, 0.78, and 0.39 with a control at 0.0 nM) are added to 4 μM of factor B and incubated for 1 hour at 37° C. After digestion, 15 μL of the reaction is transferred to a 96 well plate with 1.5 μL of 0.2N HCL. After quenching, the reactions are prepared factor B ELISA.
A Factor B standard curve is made with 800, 533.3, 355.5, 237.0, 158.0, 105.3, 70.2, 46.8, 31.2, 20.8, 0.0 pM in 1% BSA-PBST. A 384 well plate was coated with the monoclonal antibody against human Factor Ba (#A225, Quidel) at 2 μg/mL in carbonate buffer (25 μL/well). […]
The biotinylated monoclonal antibody against human Factor Bb (Quidel) was then added at 0.125 μg/ml to detect the bound Factor B. Streptavidin-HRP was then diluted at 1:200 in blocking buffer (25 μL/well) and the plate was agitated for 30 minutes at room temperature. The plate was developed with ELISABright, (50 μL/well) for 1 minute at room temperature and read in the EnVision plate reader. […]

[4] = test system: Human Factor B digests in human Factor B Depleted Serum, rabbit red blood cells; experiment: Hemolysis assay with Factor B digests (KLK5 and chymase-based protease); settings: 4 μM Factor B digested 1 hour at 37° C., 15% serum
Method: FIG. 7A depicts a graph showing hemolysis inhibition by KLK5 and compared with a chymase-based engineered protease C22S/F173Y/D175N/A226R. All references in this Example to engineered proteases are depicted in chymotrypsin numbering. The chymotrypsin numbering key for the modified protease domains of engineered proteases are found in Tables 2, 4, and 6 for uPA, MTSP-1, and chymase, respectively. Briefly, a digestion reaction was prepared with 4.0 μM of Human Factor B (Complement Technologies) in 20 μL buffer (50 mM Tris pH 7.4/50 mM NaCl/0.01% Tween 20). Different concentration of the KLK5 protease or the chymase-based engineered protease C22S/F173Y/D175N/A226R (400, 200, 100, 50, 25, 12.5, 6.25, 3.125, 1.56, 0.78, and 0.39 with a control at 0.0 nM) were added to 4 μM of Factor B and incubated for 1 hour at 37° C. After digestion, 6 μL of the reaction was evaluated in a hemolysis assay.
The Factor B digestion reactions were diluted in 20 μL of GVB (Complement Technologies), 10 mM MgCl2 and 8 mM EGTA (GVB/Mg/EGTA). 45 μL of human Factor B Depleted Serum (Complement Technologies) was then added to 5 μL of human Factor B digests to obtain a final volume of 90% serum. In parallel, 50 μL of rabbit red blood cells (Colorado Serum Co.) were diluted into 950 μL of GVB/Mg/EGTA and mixed gently. […] The plate absorbance was read at 415 nm with a spectrophotometer and the EC50 was calculated.

Human Factor B [5] = target: T1, Human Factor B; experiment: Mass spectrometry identification of Factor B cleavage sites
Method: FIG. 9 depicts mass spectrometry (MS) data identifying the cleavage site at 234 Arg within the QQKR/KIV (SEQ ID NO: 9) cleavage site of Factor B by KLK5, and identifying the cleavage site at ^221Asp within the EGVDAE (SEQ ID NO: 13) cleavage site of Factor B by the chymase-based engineered protease C22S/A226R. Briefly, human Factor B (Comptech) was incubated at 2 μM with different concentration of Kallikrein 5 (KLK5, R&D Systems) or the chymase-based engineered protease C22S/A226R at 10 nM or 100 pM for 10 minutes to 1 hour at 37° C. in 20 mM Tris pH 8 buffer with 16-0 or 18-0 water. The reaction was quenched with 20 μM of inhibitor FFR-CMK for 30 minutes at room temperature. Half of the sample was further treated with Rapidgest/chymotrypsin and adjusted to pH 3 by the addition of […] 1% TFA. TCEP (100 mM final concentration) was then added to reduce disulfides for 30 minutes at 37° C. […] of each sample was bound to a Ziptip (Millipore) and eluted with […] 80% ACN-0.1% TFA. After drying in a Speedvac, the samples were re-dissolved in […] of 30% ACN-0.05% TFA. 0.35 mL of the sample was loaded with 0.45 mL of CHCA matrix (10 mg/mL) onto an OptiPlate, and analyzed by MALDI-MS (ABI 4700) in both linear (m/z 2-22k) and reflector (m/z 1500-5400) mode. The tandem MS was carried out on peptides of interest when possible. Two large peptide fragments were detected at […] and 59 kDa. In summary, 100 pM KLK5 cleaves at 1 of 38 Arg in a 10 minute reaction and in 4 out of 38 Arg in a 60 minute reaction (Arg175, Arg193, Arg730 and Arg739). At 10 nM, cleavage was detected in […] in 10 and 60 minute reactions (Arg50, Arg74, Arg94, Arg175, Arg182, Arg193, Arg202, Arg203, Arg259, Arg381, Arg415, Arg658, Arg679, Arg708, Arg710, Arg730, Arg739). The earliest cleavage event was at Arg 730.
The reconstructed ion chromatograms shown in FIG. 9 are of reaction products from Kallikrein-5 (“KLK”), the chymase-based engineered protease C22S/A226R (“chymase-based”), and plasma derived-Factor B (“Fb control”). […] In contrast, KLK5 cleaves Factor B at ^234 Arg (peak at 4.69 minutes, MW 61437).

[6] = concentration 0.33 (unit uncertain)
[7] = concentration 1 (unit uncertain)
[8] = concentration 3 (unit uncertain)
[9] = concentration 10 (unit uncertain)

| Compound | % Hemolysis [1, 6] | % Hemolysis [1, 7] | % Hemolysis [1, 8] | % Hemolysis [1, 9] | % Hemolysis [2, 6] | % Hemolysis [2, 7] | % Hemolysis [2, 8] | % Hemolysis [2, 9] | cleavage of Factor B (ELISA) (Human Factor B [3]) | inhibition of hemolysis [4] | earliest cleavage event (Human Factor B [5]) | remaining intact Factor B (reconstructed ion chromatogram) (Human Factor B [5]) | number of Arg of Factor B cleaved (Human Factor B [5]; 100 pM, 10 minute reaction) | number of Arg of Factor B cleaved (Human Factor B [5]; 100 pM, 60 minute reaction) | number of Arg of Factor B cleaved (Human Factor B [5]; 10 nM, 10 and 60 minute reactions) |
| --- | --- | --- | --- | --- | --- | --- | --- | --- | --- | --- | --- | --- | --- | --- | --- |
| CCO[C@H]1CCN(Cc2c(OC)cc(C)c3[nH]ccc23)[C@H](c2ccc(C(=O)O)cc2)C1 [LNP023] | 102.50% | 108.48% | 33.94% | 0% | 0% | 1.16% | 0% | 0% | – | – | – | – | – | – | – |
| KLK5: Kallikrein-related peptidase 5 protease (R&D Systems) | – | – | – | – | – | – | – | – | effective in cleavage Factor B | effective in inhibition of hemolysis | Arg 730 | No remaining intact Factor B | 1 of 38 | 4 out of 38 | 18 of 38 |
